Results as given in PMC4800182 (Frontiers in Microbiology, 2016).
Structures can show the parent of a compound that is named as a salt.

What was measured:
rNanA [1] = molecular target: T1, rNanA (Streptococcus pneumoniae, UniProt P62575); assay: FL assay (MUNANA), inhibition of rNanA; type: biochemical, Streptococcus pneumoniae DSM20566
T1 construct: made in house; host or cells: E. coli
Procedure: (§1) Activity of 10-fold dilutions (1:1,000 to 1:100,000) of rNanA and rNanB was determined with a fluorescence-based NA assay (FL assay) using the substrate 2-(4-methylumbelliferyl)-α-D-N-acetylneuraminic acid sodium salt hydrate (MUNANA, Sigma–Aldrich GmbH) as published ([Richter et al., 2015]). The activity of rNanB was additionally tested at pH 5. Relative FL units (RFU) were read using the microplate reader FLUOstar Omega (BMG Labtech GmbH, Ortenberg, Germany) and converted to 4-MU concentration (Sigma–Aldrich GmbH) according to the 4-MU standard curve (Supplementary Figure 1). Velocity (μM/min) and Km value (μM) for rNanA and rNanB were determined using eight MUNANA concentrations (3.13 to 400 μM) at pH 6.5. After 5 min the reaction was stopped, RFU were measured and converted to 4-MU concentrations according to the 4-MU standard curve. The Enzyme Kinetics Module of SigmaPlot 12.0 (Systat Software, San Jose, CA, USA) was applied to fit the data to the Michaelis–Menten equation using non-linear regression.
(§2) The NAI susceptibility of rNanA and rNanB was evaluated with FL assay (rNanA and rNanB diluted 1:10,000 in FL buffer; pH 6.5) and HA assay as published recently ([Richter et al., 2015]) with slight modification of the HA assay. For stability reasons, rNanA and rNanB were diluted 1:5,000 in phosphate buffered saline (PBS) containing 100 μg/mL bovine serum albumin and stored at –20°C until use. The incubation period of the recombinant proteins with the human erythrocytes was only 1 h. At least three individual experiments were performed.

rNanA [2] = molecular target: T1, rNanA; assay: HA assay (hemagglutination of NA-treated human erythrocytes with peanut lectin), inhibition of rNanA; type: biochemical, Streptococcus pneumoniae DSM20566; conditions: 1 h incubation
Procedure: Neuraminidase activity of both NAs was further confirmed based on hemagglutination of NA-treated human erythrocytes in the presence of peanut lectin (HA assay) as described recently ([Richter et al., 2015]; [Walther et al., 2015]).
as §2

rNanB [3] = molecular target: T2, rNanB (Streptococcus pneumoniae serotype 4, UniProt Q54727); assay: FL assay (MUNANA), inhibition of rNanB; type: biochemical, Streptococcus pneumoniae DSM20566; conditions: for Inhibitory Concentration of NAIs against rNanB, FL assay: rNanB diluted 1:10,000, pH 6.5, MUNANA substrate
T2 construct: encodes a C-terminal 6xHis-tagged NanB in size of 699 amino acid residues; 6xHis (C); made in house; host or cells: E. coli (vector pET-28a, plasmid pTNB20566)
Procedure: as §1, §2

rNanB [4] = molecular target: T2, rNanB; assay: HA assay (hemagglutination of NA-treated human erythrocytes with peanut lectin), inhibition of rNanB; type: biochemical, Streptococcus pneumoniae DSM20566; conditions: 1 h incubation
Procedure: as §2

[5] = tested on: A(H1N1)pdm09 influenza virus A/Jena/8178/09; assay: Inhibition of Jena/8178 replication (yield, spread) by NAI in A549 cells, without pneumococcal NA; type: cell-based; conditions: 48 h after infection, untreated control = 100%
Procedure: (§3) Confluent MDCK and A549 cells were mock-infected with test medium or infected with Jena/8178 (0.1 TCID50/cell) for 1 h (37°C; 5% CO2). After three washing steps with test medium, test medium or various rNanA or rNanB dilutions (1:100 to 1:1,000,000) were added. After 48 h at 37°C the supernatant was taken and stored at –20°C until plaque titer determination (virus yield analysis). The remaining cells were fixed with ice-cold methanol for 20 min and stored after washing with PBS in PBS at 4°C until immunocytochemical staining (virus spread analysis).
(§4) To determine the virus yield in collected supernatants, plaque assays were conducted on confluent MDCK cells grown in 12-well tissue culture plates (Greiner Bio-One GmbH). Briefly, after virus adsorption (37°C; 1 h), inoculum was replaced by 1 mL test medium containing also 0.4% agarose and 50 mM magnesium chloride (VEB Laborchemikalien, Apolda, Germany). After 48 h of incubation at 37°C, cells were fixed and stained with a solution of 0.4% crystal violet in a mixture of formalin (3% v/v) and ethanol (1.67% v/v) in water overnight. Plaques were counted over a light box after removal of the agar overlay.
(§5) Virus spread was analyzed by detecting viral nucleoprotein with a monoclonal antibody (Acris GmbH, Hiddenhausen, Germany) by immunocytochemical staining according to the manufacturers protocol (DAKO, Hamburg, Germany; [Bauer et al., 2007]).
(§6) The inhibitory effect of the NAI on Jena/8178 (inhibition of virus yield and spread) was determined in absence and presence of rNanA or rNanB in A549 cells.
(§7) ^a The plaque titer of untreated control (influenzavirus A/Jena/8178/09) reached in A549 cells (48 h after infection) in the absence and presence of rNanA or rNanB was set as 100% virus yield. It was used to calculate the percentage of virus yield after NAI treatment. Mean and standard deviations were calculated of at least three assays with two replicates.

[6] = tested on: A(H1N1)pdm09 influenza virus A/Jena/8178/09; assay: Inhibition of Jena/8178 replication (yield, spread) by NAI in A549 cells in presence of rNanA; type: cell-based; conditions: for spread and yield of the virus in the presence of NanA: oseltamivir at 1 μM; for Percentage of Virus Yield after NAI Treatment, with rNanA: 48 h after infection, rNanA 1:10,000, untreated control = 100%
Procedure: as §3, §4, §5, §6, §7

[7] = tested on: A(H1N1)pdm09 influenza virus A/Jena/8178/09; assay: Inhibition of Jena/8178 replication (yield, spread) by NAI in A549 cells in presence of rNanB; type: cell-based; conditions: 48 h after infection, rNanB 1:10,000, untreated control = 100%
Procedure: as §3, §4, §5, §6, §7

[8] = molecular target: Influenza Virus A/Jena/8178/09 Neuraminidase (Influenza A virus (A/Jena/8178/2009(H1N1)), UniProt A0A088CA11); assay: FL assay, inhibition of viral neuraminidase; type: biochemical; conditions: A/Jena/8178/09 NA; maximum tested concentration 100 μM; read-out: Inhibitory Concentration of NAIs, FL Assay (mean IC50)
rNanB [9] = tested on: T3, rNanB; assay: Fluorescence-based NA assay with eight MUNANA concentrations (3.13 to 400 uM) at pH 6.5, enzymes diluted 1:10,000, stopped after 5 min, 4-MU release fitted to the Michaelis-Menten equation by non-linear regression.; type: biochemical; conditions: n = 3
T3 construct: recombinant, expressed in E. coli from pET-28a (pTNB20566); C-terminal 6xHis tag; 699 amino acid residues
Procedure: as §1
(§8) Both rNanA and rNanB were expressed in E. coli and their activity was confirmed by the FL assay at pH 5 (for rNanB only) and pH 6.5 (for both rNanA and rNanB). […] Activities of both recombinant S. pneumoniae NAs were further confirmed under more physiological conditions in a hemagglutination assay (HA assay; [Richter et al., 2015]). […]

[10] = tested on: CC(=O)N[C@H]1[C@H]([C@H](O)[C@H](O)CO)O[C@@](Oc2ccc3c(C)cc(=O)oc3c2)(C(=O)O)C[C@@H]1O; assay: as above; type: biochemical
Procedure: as §1, §8

T2 sequence (Q54727 30-697): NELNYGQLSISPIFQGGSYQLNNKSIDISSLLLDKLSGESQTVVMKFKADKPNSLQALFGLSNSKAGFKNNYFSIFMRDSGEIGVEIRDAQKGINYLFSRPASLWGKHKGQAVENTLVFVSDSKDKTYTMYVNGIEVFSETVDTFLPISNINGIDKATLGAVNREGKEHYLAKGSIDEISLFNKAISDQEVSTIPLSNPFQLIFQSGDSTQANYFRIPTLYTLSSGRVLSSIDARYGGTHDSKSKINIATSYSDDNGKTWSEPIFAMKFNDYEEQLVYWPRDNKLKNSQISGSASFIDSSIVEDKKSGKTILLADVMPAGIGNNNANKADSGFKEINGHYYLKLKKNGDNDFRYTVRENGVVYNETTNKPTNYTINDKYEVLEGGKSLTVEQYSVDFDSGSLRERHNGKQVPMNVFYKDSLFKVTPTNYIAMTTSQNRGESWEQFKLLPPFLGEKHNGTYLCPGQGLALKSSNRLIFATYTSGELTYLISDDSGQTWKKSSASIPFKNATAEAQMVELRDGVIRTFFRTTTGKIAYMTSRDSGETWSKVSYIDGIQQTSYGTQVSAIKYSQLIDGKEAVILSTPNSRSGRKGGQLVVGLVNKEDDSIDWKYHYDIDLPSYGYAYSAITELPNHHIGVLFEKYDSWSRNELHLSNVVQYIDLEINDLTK
T1 sequence (P62575 54-1035): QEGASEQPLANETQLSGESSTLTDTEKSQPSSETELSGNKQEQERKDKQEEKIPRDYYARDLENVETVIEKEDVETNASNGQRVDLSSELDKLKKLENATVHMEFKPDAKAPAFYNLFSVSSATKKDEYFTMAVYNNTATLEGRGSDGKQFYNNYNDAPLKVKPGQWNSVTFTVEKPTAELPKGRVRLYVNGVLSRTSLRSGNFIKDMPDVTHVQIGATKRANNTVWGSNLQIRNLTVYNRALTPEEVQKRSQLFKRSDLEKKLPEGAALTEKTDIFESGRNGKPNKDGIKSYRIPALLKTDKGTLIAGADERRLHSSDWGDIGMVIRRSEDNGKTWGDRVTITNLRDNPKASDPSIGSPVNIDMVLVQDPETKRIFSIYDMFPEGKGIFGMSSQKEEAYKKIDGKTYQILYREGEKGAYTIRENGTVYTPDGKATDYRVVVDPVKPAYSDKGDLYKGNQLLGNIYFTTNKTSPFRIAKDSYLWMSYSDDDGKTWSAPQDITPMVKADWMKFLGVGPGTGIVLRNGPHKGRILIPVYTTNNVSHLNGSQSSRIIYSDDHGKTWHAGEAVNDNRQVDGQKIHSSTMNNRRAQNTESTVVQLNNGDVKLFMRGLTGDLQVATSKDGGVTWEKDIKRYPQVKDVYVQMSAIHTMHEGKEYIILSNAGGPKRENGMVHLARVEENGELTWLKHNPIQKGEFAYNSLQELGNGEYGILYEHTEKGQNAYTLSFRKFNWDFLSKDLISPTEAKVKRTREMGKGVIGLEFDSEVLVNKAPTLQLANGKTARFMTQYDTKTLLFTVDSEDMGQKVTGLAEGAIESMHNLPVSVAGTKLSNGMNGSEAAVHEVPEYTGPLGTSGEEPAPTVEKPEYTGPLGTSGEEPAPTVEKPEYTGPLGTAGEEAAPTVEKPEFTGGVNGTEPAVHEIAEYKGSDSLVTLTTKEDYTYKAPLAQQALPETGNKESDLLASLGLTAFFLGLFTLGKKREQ

Row | Compound | IC50 (rNanA [1]) [µM] | Inhibitory Concentration of NAIs against rNanA, HA assay (rNanA [2]) | Inhibitory Concentration of NAIs against rNanB, FL assay (rNanB [3]) | Inhibitory Concentration of NAIs against rNanB, HA assay (rNanB [4]) | Percentage of Virus Yield after NAI Treatment, without NA ([5]; NAI 10 µM) [%] | Percentage of Virus Yield after NAI Treatment, without NA ([5]; NAI 20 µM) [%] | spread and yield of the virus in the presence of NanA ([6]; 48 h) | Percentage of Virus Yield after NAI Treatment, with rNanA ([6]; NAI 10 µM) [%] | Percentage of Virus Yield after NAI Treatment, with rNanA ([6]; NAI 20 µM) [%] | Percentage of Virus Yield after NAI Treatment, with rNanB ([7]; NAI 20 µM) [%] | further results
1 | COc1cc2oc(-c3ccc(O)cc3O)c(CC=C(C)C)c(=O)c2c(O)c1/C=C/C(C)C [Artocarpin] | 10 ± 6.3 | 10.0 ± 0.0 µM | Not active | 10.0 ± 0.0 µM | 70.2 ± 10.5 | 84.8 ± 15.7 | inhibited | 67.3 ± 25.5 | 44.3 ± 11.0 | 77.1 ± 37.8 | –
2 | CC(=O)N[C@H]1[C@H]([C@H](O)[C@H](O)CO)OC(C(=O)O)=C[C@@H]1O [DANA, N-acetyl-2,3-dehydro-2-deoxyneuraminic acid] | – | 100.0 ± 0.0 µM | – | – | 78.9 ± 36.1 | – | inhibited | 81.1 ± 27.9 | – | – | IC50 [8]: 3.6 ± 0.4 µM; Percentage of Virus Yield after NAI Treatment, without NA ([5]; NAI 50 µM): 34.8 ± 17.4%; Percentage of Virus Yield after NAI Treatment, with rNanA ([6]; NAI 50 µM): 13.5 ± 8.3%; Percentage of Virus Yield after NAI Treatment, with rNanB ([7]; NAI 50 µM): 27.4 ± 1.0%
3 | O=C(CCc1ccccc1)C[C@@H]1C[C@@H](c2ccccc2)c2c(cc(/C=C/c3ccccc3)oc2=O)O1 [Katsumadain A, katsumadain A] | – | 3.2 ± 0.0 µM | – | 5.4 ± 4.0 µM | 54.9 ± 25.7 | 29.0 ± 15.1 | inhibited | 67.3 ± 6.2 | 28.1 ± 13.7 | 21.0 ± 4.1 | –
4 | CC(=O)N[C@H]1[C@H]([C@H](O)[C@H](O)CO)O[C@@](Oc2ccc3c(C)cc(=O)oc3c2)(C(=O)O)C[C@@H]1O [MUNANA, 2-(4-methylumbelliferyl)-α-D-N-acetylneuraminic acid sodium salt hydrate] | – | – | – | – | – | – | – | – | – | – | Km (rNanB [9]): 684 µM
5 | CC(=O)N[C@H]1[C@H]([C@H](O)[C@H](O)CO)OC(C(=O)O)=C[C@@H]1N=C(N)N [Zanamivir, zanamivir] | > 100 | Not active | Not active | Not active | – | – | – | – | – | – | Inhibitory Concentration of NAIs against rNanA, FL assay (rNanA [1]; rNanA diluted 1:10,000, pH 6.5, MUNANA substrate): Not active; IC50 (rNanB [3]): > 100 µM; Percentage of Virus Yield after NAI Treatment, without NA ([5]; NAI 0.1 µM): 4.4 ± 1.5%; Percentage of Virus Yield after NAI Treatment, without NA ([5]; NAI 1 µM): 1.4 ± 1.0%; antiviral effect in the presence of rNanA ([6]; 48 h, spread and yield): abolished; Percentage of Virus Yield after NAI Treatment, with rNanA ([6]; NAI 0.1 µM): 109.0 ± 35.5%; Percentage of Virus Yield after NAI Treatment, with rNanA ([6]; NAI 1 µM): 86.5 ± 46.2%; Percentage of Virus Yield after NAI Treatment, with rNanB ([7]; NAI 0.1 µM): 6.2 ± 2.9%; Percentage of Virus Yield after NAI Treatment, with rNanB ([7]; NAI 1 µM): 0.7 ± 0.3%
6 | rNanA (Streptococcus pneumoniae R6) | – | – | – | – | – | – | – | – | – | – | Km [10]: 39.70 µM
